Experimental data as given in PMC3745430, “Novel Multiplexed Assay for Identifying SH2 Domain Antagonists of STAT Family Proteins” (PLoS ONE, 2013).
Read-outs that look alike come from different tables or passages of the source. Square brackets hold non-standard residues; d marks the D form. Primed or numbered codes have the meaning given here. Ends that are not written are not given here. pY = N[C@@H](Cc1ccc(OP(=O)(O)O)cc1)C(=O)O; FITC′ = 5-carboxyfluorescein label; DIG = digoxygenin label; C2 = two carbon spacer; C6 = C6 spacer

Assays:
[1] = molecular target: T1, STAT3(136–705) (Homo sapiens, UniProt P40763); experiment: Multiplexed Alpha assay, STAT3-SH2 binding (AlphaLISA)
T1 construct: amino acids 136 to 705 of human STAT3 and 136 to 703 of human STAT5b; 6×His-tag (N); made in house; host or cells: E. coli BL-21 Star (DE3) pLysS co-transformed with pBirAcm
Description: (§1) Both AlphaLISA and AlphaScreen are bead-based nonradioactive binding assay systems for detecting biomolecular interactions in a microplate format. The binding of the biological partners brings the donor and acceptor beads into close proximity, and AlphaLISA produces a specific signal around 615 nm and AlphaScreen emits a broad signal between 520 and 620 nm. The assays were performed in a final reaction volume of 25 µL of the assay buffer, which contained 10 mM HEPES-NaOH (pH 7.4), 50 mM NaCl, 1 mM EDTA (pH 8.0), 0.1% (w/v) NP-40, and 10 ng/µL (w/v) BSA in a 96-well microplate at 25°C. The labeled phosphotyrosyl (pTyr, pY) peptide probes were DIG-GpYLPQTV and FITC-GpYLVLDKW for STAT3 and STAT5b, respectively. In the single assay for STAT3 binding, 100 nM STAT3(136–705) protein was incubated with a test compound dissolved in DMSO for 30 min, and 1.0 nM DIG-GpYLPQTV was added and the mixture was incubated for 90 min. Streptavidin-coated donor beads (0.25 µg/well) and anti-DIG AlphaLISA acceptor beads (0.25 µg/well) were added and incubated for 90 min before the signals were measured with EnVison Xcite (PerkinElmer Life Sciences). In the single assay for STAT5b binding, 20 nM STAT5b(136–703) was incubated with a test compound for 30 min, and 1.0 nM FITC-GpYLVLDKW was added and incubated for 90 min. Streptavidin-coated donor beads (0.25 µg/well) and anti-FITC AlphaScreen acceptor beads (0.25 µg/well) were added and incubated for 90 min before the signals were measured with EnVison Xcite. In the multiplexed assay, 100 nM STAT3(136–705) and 20 nM STAT5b(136–703) were incubated with a test compound for 30 min, and 1.0 nM DIG-GpYLPQTV and 1.0 nM FITC-GpYLVLDKW were added and incubated for 90 min. Streptavidin-coated donor beads (0.50 µg/well), anti-DIG AlphaLISA (0.25 µg/well), and anti-FITC AlphaScreen acceptor beads (0.25 µg/well) were added and incubated for 90 min before the signals were measured with EnVison Xcite. AlphaLISA and AlphaScreen signals for measuring STAT3- and STAT5b-SH2 binding, respectively, can be separately measured by using a dysprosium 572 nm and a europium 615 nm narrow bandwidth filter. In inhibitory assays, these signals for the bound state and the free state were represented as 0% and 100% inhibition, respectively. The bound state was measured by incubating the labeled peptide and the protein without test compounds. The free state was measured by incubating the same mixture with an additional 10 µM non-labeled peptide contained phosphorylated tyrosine, which competitively binds to its corresponding protein. The IC50 value was calculated by Graph pad prism 4.0. The mean and the standard error (SEM) of IC50 values were determined from three independent experiments. The Z’ value was calculated using the equation Z’ = 1–(3×SD_bound +3×SD_free)/(Signal_bound – Signal_free). STAT1 and Grb2 binding assays were performed as described in previous report. In the assays for selectivity of Compound 1, 100 pM biotinylated DIG or 100 pM biotinylated FITC was incubated with 10 µM or 30 µM Compound 1 for 30 min. Streptavidin-coated donor beads (0.25 µg/well) and anti-DIG AlphaLISA acceptor beads (0.25 µg/well) or anti-FITC AlphaScreen acceptor beads (0.25 µg/well) were added and incubated for 90 min before the signals were measured with EnVison Xcite.

[2] = molecular target: T2, STAT5b(136–703) (Homo sapiens, UniProt P51692); experiment: Multiplexed Alpha assay, STAT5b-SH2 binding (AlphaScreen)
T2 construct: 136 to 703 of human STAT5b; 6×His-tag (N); made in house; host or cells: E. coli BL-21 Star (DE3) pLysS co-transformed with pBirAcm
T2 sequence (P51692 136-703): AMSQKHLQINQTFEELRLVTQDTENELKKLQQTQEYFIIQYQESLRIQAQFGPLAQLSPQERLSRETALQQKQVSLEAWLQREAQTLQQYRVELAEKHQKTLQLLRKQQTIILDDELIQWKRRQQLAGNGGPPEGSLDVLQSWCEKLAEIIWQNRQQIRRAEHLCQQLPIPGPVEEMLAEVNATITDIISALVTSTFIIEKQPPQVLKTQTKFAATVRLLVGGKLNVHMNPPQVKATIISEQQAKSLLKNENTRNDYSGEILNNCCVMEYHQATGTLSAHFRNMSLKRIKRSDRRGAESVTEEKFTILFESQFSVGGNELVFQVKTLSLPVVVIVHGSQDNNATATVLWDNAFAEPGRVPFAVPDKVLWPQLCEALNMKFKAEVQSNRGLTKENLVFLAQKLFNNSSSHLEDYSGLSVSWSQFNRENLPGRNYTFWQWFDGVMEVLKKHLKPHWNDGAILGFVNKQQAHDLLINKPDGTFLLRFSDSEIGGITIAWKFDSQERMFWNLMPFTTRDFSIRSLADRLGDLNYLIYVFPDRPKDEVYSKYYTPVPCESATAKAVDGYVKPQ
Description: as §1

[3] = molecular target: T1, STAT3(136–705); experiment: Single STAT3-SH2 binding assay (AlphaLISA); details: single assay, non-labeled peptides (Figure 4A)
Description: as §1

[4] = molecular target: T2, STAT5b(136–703); experiment: Single STAT5b-SH2 binding assay (AlphaScreen); details: single assay, non-labeled peptides (Figure 4B)
Description: as §1

[5] = test system: STAT3 nuclear translocation in HeLa cells; experiment: STAT3 nuclear translocation assay in oncostatin M-stimulated HeLa cells; type: cell-based
Description: The Cellomics STAT3 Activation Kit (Thermo Scientific) was used for the nuclear translocation assay. HeLa cells were incubated in a 96-well microplate for 24 h. Cells were pretreated with the test compounds for 1 hour, and 30 ng/mL (w/v) of oncostatin M was applied and the mixture was incubated for 10 min. The subsequent procedures were performed according to the manufacturer’s instructions. The cells were scanned with an ArrayScan VTI reader (Thermo Scientific), and analyzed with the Cytoplasm to Nucleus Translocation Application. The mean fluorescent values in the nuclei were calculated. The signals for vehicle treatment and no treatment (without oncostatin M) were represented as 100% and 0%, respectively, and the relative signal intensity was also calculated.

[6] = test system: JAK2; design: method as in PMID 11934592; details: in vitro assay; cited from earlier work
[7] = test system: JAK3; design: method as in PMID 11934592; details: in vitro assay; cited from earlier work
[8] = test system: TYK2; design: method as in PMID 11934592; details: in vitro assay; cited from earlier work
[9] = molecular target: T1, STAT3(136–705); experiment: AlphaScreen competition of FITC-C6-GpYLPQTV binding to STAT3(136–705); details: AlphaScreen system, competitor (Figure S2)
Description: To acquire the signal window, the length of the spacer between DIG and the peptide sequence in the DIG-labeled GpYLPQTV peptide was investigated by using the single STAT3-SH2 binding assay. A six carbon (C6) and a two carbon (C2) peptide spacer were used (Figure 3A). […] The DIG-C6-GpYLPQTV peptide was chosen as the STAT3 ligand. When 100 nM STAT3(136–705) was used as the biotinylated protein, 2.0 nM DIG-C6-GpYLPQTV produced the maximum signal for the STAT3-SH2 binding (Figure 3B, Figure S1). For the STAT5b-SH2 binding, FITC-C6-GpYLVLDKW was used as the STAT5b ligand. The signals increased in a peptide dose-dependent manner (Figure S1). When 20 nM STAT5b(136–703) was used, 2.5 nM FITC-C6-GpYLVLDKW produced the maximum signal for STAT5b-SH2 binding. […] Therefore, although DIG-C2-GpYLPQTV could bind to STAT3, it was not suitable for the Alpha system. The anti-DIG antibody may access the DIG-C6-GpYLPQTV peptide-STAT3 protein complex in preference to the DIG-C2-GpYLPQTV peptide complex because of the length of the spacer.
Supplementary file pone.0071646.s002.tif: Figure S2 Inhibition of STAT3-SH2 binding by DIG-C2-GpYLPQTV. DIG-C2-GpYLPQTV was used as a competitor in the binding assay for STAT3(136–705) protein and FITC-C6-GpYLPQTV peptide in the single assay. Each point is the mean from three replicates, and the error bars represent the standard deviation from the mean. […]

[10] = molecular target: T3, STAT5b(136–703) (human, UniProt P51692 136-703, biotin on the Avi-tag); experiment: AlphaScreen or HTRF; AlphaScreen, single STAT5b-SH2 assay, competition: 20 nM biotinylated STAT5b(136-703) incubated with non-labelled peptide, then 1.0 nM FITC-GpYLVLDKW for 90 min; streptavidin donor and anti-FITC acceptor beads; 10 mM HEPES-NaOH pH 7.4, 50 mM NaCl, 1 mM EDTA, 0.1% NP-40, BSA, 25°C; details: both partners purified
T3 construct: also called biotinylated STAT5b protein; truncated form of STAT5b; source: E. coli BL-21 Star (DE3) pLysS with pBirAcm (biotinylated in the cells), purified (HisTrap HP, dialysis); not shown: Avi-tag, N-terminal, kept
T3 sequence (looked up): T2 sequence (P51692 136-703)

[11] = multiplexed binding assay, mean and SEM, three independent experiments, read-out: IC50 STAT3-SH2 binding (STAT3)
[12] = multiplexed binding assay, mean and SEM, three independent experiments, read-out: IC50 STAT5b-SH2 binding (STAT5b)
[13] = multiplexed assay, read-out: IC50 for STAT3-SH2 binding
[14] = multiplexed assay, read-out: IC50 for STAT5b-SH2 binding

T1 sequence (P40763 136-705): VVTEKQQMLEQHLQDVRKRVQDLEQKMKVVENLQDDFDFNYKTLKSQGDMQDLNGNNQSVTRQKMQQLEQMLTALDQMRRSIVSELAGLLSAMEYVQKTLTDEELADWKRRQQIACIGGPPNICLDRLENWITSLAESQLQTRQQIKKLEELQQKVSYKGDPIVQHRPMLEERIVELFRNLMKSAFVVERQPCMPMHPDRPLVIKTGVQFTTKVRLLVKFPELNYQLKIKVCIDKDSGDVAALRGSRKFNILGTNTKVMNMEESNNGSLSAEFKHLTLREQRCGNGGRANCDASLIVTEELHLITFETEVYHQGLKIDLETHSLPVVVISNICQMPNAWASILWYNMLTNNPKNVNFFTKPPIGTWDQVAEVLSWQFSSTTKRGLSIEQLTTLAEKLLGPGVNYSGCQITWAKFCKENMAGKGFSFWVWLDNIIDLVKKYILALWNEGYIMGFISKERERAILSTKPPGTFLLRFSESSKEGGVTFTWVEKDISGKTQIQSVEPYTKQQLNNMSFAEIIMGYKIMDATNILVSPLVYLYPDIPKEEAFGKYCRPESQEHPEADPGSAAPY

Work on `O=C1C(Cl)=C(N2CCOCC2)C(=O)c2ccc(S(=O)(=O)N3CCOCC3)cc21` [Compound 6] yielded an IC50 [1, 11] of 3.8 ± 0.064 µM and an IC50 [2, 12] of 13 ± 0.38 µM.

For Ac-GYLVLDKW-NH2, the “Inhibitory effect on STAT3-SH2 binding” value [3] was “had no effect” and the “Inhibitory effect on STAT5b-SH2 binding” value [4] was “had no effect”.

For Ac-GpYLVLDKW-NH2, the “Inhibitory effect on STAT3-SH2 binding” value [3] was “had no effect” and the “Inhibitory effect on STAT5b-SH2 binding” value [4] was “inhibited”.

For `CCOc1ccccc1NC1=C(Cl)C(=O)c2ccccc2C1=O` [Compound 2], the “Increase in inhibitory activity against STAT3 in comparison with Compound 1” value ([1]; multiplexed assay) was “approximately 3 fold”, the IC50 [1, 11] was 1.5 ± 0.052 µM and the “Increase in inhibitory activity against STAT5b in comparison with Compound 1” value ([2]; multiplexed assay) was ~8 fold. The IC50 [2, 12] was 1.4 ± 0.019 µM.

In the case of `CN1CCN(C2=C(Cl)C(=O)c3ccccc3C2=O)CC1` [Compound 7], the IC50 [1, 11] is reported as > 30 µM, the IC50 [2, 12] is reported as > 30 µM and the “Effect on STAT3 nuclear translocation” value ([5]; HeLa cells, pretreatment before oncostatin M (Figure 6, Figure S9)) is reported as “did not inhibit”.

In the case of “Ac-GpYLPQTV-NH2 (Ac-G[pY]LPQTV-NH2) [non-labeled phosphotyrosine peptide for STAT3]”, the “Inhibitory effect on STAT3-SH2 binding” value [3] is reported as “inhibited” and the “Inhibitory effect on STAT5b-SH2 binding” value [4] is reported as “had no effect”.

In the case of `CC(C)(C)c1nc2c3cc[nH]c(=O)c3c3cc(F)ccc3c2[nH]1` [JAK inhibitor 1], the “Fluorescent intensity of STAT3 in the nuclei, of the vehicle treatment” value ([5]; 1 µM, positive control, HeLa) is listed as 61%, the IC50 [6] is listed as […] and the IC50 [7] is listed as […]. The IC50 [8] was […].

`O=[N+]([O-])c1ccc2c(c1)S(=O)(=O)C=C2` [Stattic, reference compound] showed an IC50 [1, 13] of 50 µM and an IC50 [2, 14] of 175 µM.

With `O=C1C(Cl)=C(Cl)C(=O)c2ccccc21` [Compound 5] the IC50 [1, 11] was 12 ± 0.59 µM and the IC50 [2, 12] was 20 ± 0.33 µM.

In the case of Ac-GYLPQTV-NH2, the “Inhibitory effect on STAT3-SH2 binding” value [3] is reported as “had no effect” and the “Inhibitory effect on STAT5b-SH2 binding” value [4] is reported as “had no effect”.

Molecule `O=C(NN=Cc1coc2ccccc2c1=O)c1cccnc1` [STAT5 inhibitor, N′-((4-Oxo-4H-chromen-3-yl)methylene)nicotinohydrazide, reference compound] has an IC50 [1, 13] of 161 µM and an IC50 [2, 14] of 2.8 µM.

In the case of “DIG-C2-GpYLPQTV ({DIG-C2}-G[pY]LPQTV) [digoxygenin-labeled GpYLPQTV peptide with two carbon spacer]”, the “Inhibition of binding between FITC-C6-GpYLPQTV and STAT3(136–705)” value [9] is reported as “inhibited”.

For `CC(=O)NC1=C(Cl)C(=O)c2ccccc2C1=O` [Compound 4], the IC50 [1, 11] was 23 ± 0.68 µM and the IC50 [2, 12] was > 30 µM.

B1: Ac-GpYLVLDKW-NH2 (peptide)
peptide: Ac-G[pY]LVLDKW-NH2
SMILES: CC(=O)NCC(=O)N[C@@H](Cc1ccc(OP(=O)(O)O)cc1)C(=O)N[C@@H](CC(C)C)C(=O)N[C@H](C(=O)N[C@@H](CC(C)C)C(=O)N[C@@H](CC(=O)O)C(=O)N[C@@H](CCCCN)C(=O)N[C@@H](Cc1c[nH]c2ccccc12)C(N)=O)C(C)C
notes: the leading G is not the receptor's; also called non-labeled peptide for STAT5b
B1: binds [10].

B2: FITC-C6-GpYLVLDKW (peptide)
peptide: {FITC′-C6}-G[pY]LVLDKW
notes: the leading G is not the receptor's residue at that place; also called FITC-GpYLVLDKW; FITC-labeled GpYLVLDKW peptide; source: synthetic peptide (synthesized by Nippi Biomatrix Laboratory)
B2: binds [10].
